Assay results as given in ChEMBL document CHEMBL4229477, “Reevaluating the Substrate Specificity of the L-Type Amino Acid Transporter (LAT1)” (J Med Chem, 2018).

Target: Large neutral amino acids transporter small subunit 1 (Homo sapiens, UniProt Q01650)
Test: Cis-inhibition of human LAT1 expressed in TREx HEK293 cells at 200 uM assessed as inhibition of [3H]-gabapentin uptake preincubated for 3 mins at 37 degC followed by washing with choline buffer and measured after 3 hrs by scintillation counting analysis relative to BCH
Format: cell-based

Sequence of Large neutral amino acids transporter small subunit 1 (Q01650 whole entry): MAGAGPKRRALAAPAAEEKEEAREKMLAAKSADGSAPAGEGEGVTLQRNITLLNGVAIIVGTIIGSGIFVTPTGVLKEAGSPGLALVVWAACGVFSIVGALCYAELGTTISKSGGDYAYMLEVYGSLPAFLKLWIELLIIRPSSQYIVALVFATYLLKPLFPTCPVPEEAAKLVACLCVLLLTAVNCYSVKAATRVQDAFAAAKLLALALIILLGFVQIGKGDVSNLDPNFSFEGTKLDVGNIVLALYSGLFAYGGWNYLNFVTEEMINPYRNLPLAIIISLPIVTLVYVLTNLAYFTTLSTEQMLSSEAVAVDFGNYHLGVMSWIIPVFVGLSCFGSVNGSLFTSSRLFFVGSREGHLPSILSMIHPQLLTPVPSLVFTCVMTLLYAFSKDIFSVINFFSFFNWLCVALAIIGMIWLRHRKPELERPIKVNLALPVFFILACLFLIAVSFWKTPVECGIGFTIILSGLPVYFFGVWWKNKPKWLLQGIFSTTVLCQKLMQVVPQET

Row | SMILES | IC50 [µM]
1 | N[C@H](Cc1ccc(O)cc1)C(=O)O | 380
2 | N[C@@H](Cc1cccc(O)c1)C(=O)O | 130
3 | N[C@@H](CC1CCCCC1)C(=O)O | 200
4 | N[C@@H](Cc1cccc(C(=O)O)c1)C(=O)O | 130
5 | CC(=O)c1cccc(C[C@H](N)C(=O)O)c1 | 92
6 | N[C@@H](Cc1cn(Cc2ccccc2)cn1)C(=O)O | 170
7 | CNC(=O)c1cccc(C[C@H](N)C(=O)O)c1 | 96
8 | COC(=O)c1cccc(C[C@H](N)C(=O)O)c1 | 36
9 | N[C@@H](Cc1cccnc1)C(=O)O | 69
10 | COC(=O)Cc1cccc(C[C@H](N)C(=O)O)c1 | 76
11 | N[C@@H](Cc1ccccn1)C(=O)O | 160
12 | NCc1cccc(C[C@H](N)C(=O)O)c1 | 470
13 | N[C@@H](Cc1cccc(C(=O)OCCO)c1)C(=O)O | 29
14 | Nc1cccc(C[C@H](N)C(=O)O)c1 | 101
15 | CSCC[C@](N)(Cc1ccccc1)C(=O)O | 240
16 | CC(=O)Nc1cccc(C[C@H](N)C(=O)O)c1 | 110
17 | CC(C)(C)OC(=O)c1cccc(C[C@H](N)C(=O)O)c1 | 17
18 | Cc1cc(C[C@H](N)C(=O)O)cc(C(=O)O)c1 | 680
19 | N[C@@H](Cc1ccncc1)C(=O)O | 100
20 | C[C@](N)(Cc1ccccc1)C(=O)O | 130
21 | C[C@@](N)(Cc1ccccc1)C(=O)O | 810
22 | N[C@@H](Cc1cccc(CO)c1)C(=O)O | 83
23 | N[C@H](CC1CCCCC1)C(=O)O | 260
24 | N[C@H](Cc1ccccc1)C(=O)O [D-PHENYLALANINE] | 46
25 | N[C@H](Cc1c[nH]c2ccccc12)C(=O)O [D-TRYPTOPHAN] | 380
26 | N[C@@H](Cc1ccccc1)C(=O)O [PHENYLALANINE] | 69
27 | N[C@@H](Cc1c[nH]c2ccccc12)C(=O)O [TRYPTOPHAN] | 160
28 | N[C@@H](Cc1ccc(O)cc1)C(=O)O [TYROSINE] | 68

Results, then the molecule that gave them:

Row | IC50 [µM] | SMILES
29 | > 50000 | CC(C)[C@@H](N)C(=O)O
30 | 190 | Cn1cnc(C[C@H](N)C(=O)O)c1
31 | 120 | CSCC[C@@H](N)C(=O)O
32 | > 3000 | CC[C@H](C)[C@@H](N)C(=O)O
33 | 95 | COC(=O)c1cc(C)cc(C[C@H](N)C(=O)O)c1
34 | 150 | COC(=O)c1cccc(C[C@@H](N)C(=O)O)c1
35 | 260 | COC(=O)c1ccc(C[C@H](N)C(=O)O)cc1
36 | 460 | N[C@H](Cc1c[nH]cn1)C(=O)O [D-HISTIDINE]
37 | 220 | CC(C)C[C@@H](N)C(=O)O [D-LEUCINE]
38 | 20 | N[C@@H](Cc1c[nH]cn1)C(=O)O [HISTIDINE]
39 | 140 | CC[C@H](C)[C@H](N)C(=O)O [ISOLEUCINE]
40 | 85 | CC(C)C[C@H](N)C(=O)O [LEUCINE]
41 | 170 | CSCC[C@H](N)C(=O)O [METHIONINE]
42 | 68 | CC(C)[C@H](N)C(=O)O [VALINE]
